From paper PMC9424909, “Rutin alleviated acrolein-induced cytotoxicity in Caco-2 and GES-1 cells by forming a cyclic hemiacetal product” (Frontiers in Nutrition, 2022)

How the values were obtained:
GES-1 cells [1] = experiment: apoptosis assay, Annexin-V FITC/PI flow cytometry; type: cell-based, human; settings: 24 h
Method: (§1) The Caco-2 cell line and GES-1 cell line were obtained from iCell Bioscience (Shanghai, China). As described by Chai et al. ([40]) with a bit modification, the Caco-2 cells were cultured within a medium composed of DMEM supplemented with 1% (v/v) NEAA, 10% (v/v) FBS, and penicillin and streptomycin (100 U/mL). GES-1 cells were cultivated according to Xu et al. ([41]) with slight modifications as follows: DMEM medium including 1% (v/v) NEAA, 10% (v/v) FBS, and penicillin and streptomycin (100 U/mL). Cells were all maintained in a humidified incubator containing 5% CO2 and 95% air at 37°C.
(§2) Cell apoptosis assay was conducted in refer to Abas et al. ([42]) with modifications. In short, cells at a density of 1 × 10^4 cells/well were seeded in 96-well plates and incubated overnight, followed by exposure to different concentrations of ACR and RAC for another 24 h. After that, cells were rinsed twice with PBS, resuspended in 200 μL of Annexin-binding buffer, and finally stained with Annexin-V FITC and PI (5 μL each) for 10 min at 37°C in darkness. After adding 400 μL of Annexin-binding buffer, the signal intensity was measured using a FACSCalibur (Becton Dickinson, CA, USA) flow cytometry within 1 h, and data was analyzed with FlowJo software (Ashland, OR, USA).

Caco-2 cells [2] = experiment: apoptosis assay, Annexin-V FITC/PI flow cytometry; type: cell-based, human; settings: for apoptotic cells / number of viable cells: 24 h
Method: as §1, §2

GES-1 cells [3] = experiment: cell survival, CCK-8 assay; type: cell-based, human; settings: for cell viability (viable cell number): incubation 24 h
Method: as §1
(§3) The effects of ACR and RAC on cell survival (both Caco-2 and GES-1 cells) were measured by the CCK-8 assay ([41]). Briefly, cells (1 × 10^4 cells/well) were seeded into a 96-well plate and cultivated overnight. […] After cells were rinsed twice with PBS and resuspended in 100 μL of DMEM supplemented with 10% FBS, 10 μL of CCK-8 solution was added into each well and the plate was maintained for 1 h in the incubator. The plate was read at 450 nm on a microplate reader (BioTek, Epoch 2, USA), and all experiments were performed thrice. Cell viability was expressed as a percentage of the control group as shown below:
(§4) Cell viability (%) = A sample/A control × 100%
(§5) Where A sample was the absorbance (Abs) of the cells incubated with different concentrations of sample solutions, and A control was the Abs of the cells incubated without sample solution.

Caco-2 cells [4] = experiment: cell survival, CCK-8 assay; type: cell-based, human; settings: for cell viability (viable cell number): incubation 24 h
Method: as §1, §3, §4, §5

GES-1 cells [5] = experiment: JC-1 staining, mitochondrial membrane potential (MMP); type: cell-based, human; settings: 24 h
Method: as §1
(§6) After incubation with different concentrations of samples, the changes of MMP in Caco-2 and GES-1 cells were measured in accordance with Liu et al., with slight modifications ([43]). In brief, cells (1 × 10^4 cells/well) were exposed to different concentrations of ACR and RAC for 24 h, respectively. Then 500 μL of JC-1 staining solution was added into each well and the plate was further incubated at 37°C for 15 min. Cells were then rinsed twice with 1 mL of staining buffer and resuspended with 500 μL of staining buffer prior to MMP determination in the flow cytometry.

Caco-2 cells [6] = experiment: as above; type: cell-based, human; settings: 24 h
Method: as §1, §6

[7] = elimination of ACR by rutin in PBS (DNPH derivatization, HPLC); settings: for amount of ACR reduced compared with the initial content / content of ACR (residual) / content of residual ACR: 2 h; for content of ACR (residual): rutin/ACR 1/1, initial content 200 μmol
Method: In the present study, three variables were taken into consideration, namely temperature (40–100°C), reaction duration (0.5–8 h), and molar ratio of rutin to ACR (from 1/2 to 4/1), and the remaining level of ACR was determined. A mixture of rutin, ACR, and 20 mL of PBS was prepared in a 50 mL three-necked flask and reacted under light-proof conditions. The different variables were studied separately while keeping other conditions constant as follows: temperature of 80°C, reaction time of 2 h, and the molar ratio of rutin/ACR of 1/1. At the end of each reaction, ACR was derivatized with DNPH, and its content was determined as below.
The stock solution equivalent to ACR concentration of […] was prepared by dissolving 10.7 mg of ACR-DNPH standard with 25 mL of acetonitrile (ACN). And the ACR-DNPH standard curve (2 to 100 μg/mL) was established by serial dilutions of the stock solution. The HPLC conditions were as below. An Agilent 1,260 Infinity II HPLC system (Agilent Technologies, Palo Alto, CA) equipped with a DAD and a Zorbax SB-C18 column (250 × 4.6 mm; 5 μm; Agilent Technologies) was utilized for the determination of ACR-DNPH. The separation was conducted under isocratic conditions by introducing 50% A (water) and 50% B (ACN) at a flow rate of 1.0 mL/min for 15 min. The temperature was 35°C, the injection volume was 20 μL, and the detection wavelength was set at 365 nm. According to the retention time as well as the peak area, the standard curve of ACR-DNPH derivates was obtained.
DNPH was recrystallized as the followings before use: excess DNPH was added into 200 mL of methanol (MeOH) heating for 1 h, and the supernatant was collected and further heated at 60°C to remove 95% of the solvent; the crystals were then washed twice with 100 mL of MeOH, transferred to another clean beaker, and co-heated with 200 mL of MeOH; and the resulting crystal was stored under seal. The 0.1 M DNPH solution was prepared by dissolving 5.0548 g of the purified DNPH in 250 mL of ACN containing 5 mL of 10% phosphoric acid solution.
Derivatization of ACR with DNPH was conducted in accordance with Reilly et al. ([36]). In short, one milliliter of each sample was incubated with 1 mL of diluted DNPH solution (0.01 M) for 40 min at 40°C, followed by extraction with 10 mL of MeOH/water (75: 25, v/v). After centrifugation (6,000 rpm, 10 min), the supernatant was collected and was further extracted with 10 mL of dichloromethane to obtain the DNPH derivatives. Prior to HPLC analysis as above, the DNPH derivatives were re-dissolved in 1 mL of HPLC grade ACN and passed through a 0.45 μm filter (Bie & Berntsen, Rødovre, Denmark).

For `C=CC=O` [ACR, Acrolein], which apoptotic rate (GES-1 cells [1]; GES-1, 20 μM) is on record?
Its apoptotic rate is 16.28%.

What about the apoptotic rate (GES-1 cells [1]; GES-1, 60 μM) of the same compound?
Its apoptotic rate is 68.10%.

And the apoptotic cells (Caco-2 cells [2]; Caco-2, 20 μM)?
The apoptotic cells was 12.19%.

And the “number of viable cells” value (Caco-2 cells [2]; Caco-2, 20 μM)?
The value was 87.5%.

What about the apoptotic cells (Caco-2 cells [2]; Caco-2, 40 μM) of the same compound?
Its apoptotic cells is 28.59%.

What about the “number of viable cells” value (Caco-2 cells [2]; Caco-2, 40 μM) of the same compound?
The value was 71.3%.

And the “apoptotic rate, times higher than that of the same concentration of RAC” value (Caco-2 cells [2]; Caco-2, 60 μM)?
Its value is 5.5 times.

What about the apoptotic cells (Caco-2 cells [2]; Caco-2, 60 μM) of the same compound?
The apoptotic cells was 59.50%.

And the “number of viable cells” value (Caco-2 cells [2]; Caco-2, 60 μM)?
The value was 40.0%.

And the “cell viability (viable cell number)” value (GES-1 cells [3]; GES-1, 20 μM)?
Its value is 49.57%.

And the “cell viability (viable cell number)” value (GES-1 cells [3]; GES-1, 140 μM)?
Its value is 11.22%.

And the IC50 (GES-1 cells [3]; GES-1, CCK-8, read-out: IC50 (cytotoxicity))?
Its IC50 is less than 20 µM.

And the “decrease of viable cell number” value (GES-1 cells [3]; GES-1, up to 140 μM, 24 h as printed)?
The value was 88.78%.

What about the “cell viability (viable cell number)” value (Caco-2 cells [4]; Caco-2, 20 μM) of the same compound?
The value was 31.83%.

What about the “cell viability (viable cell number)” value (Caco-2 cells [4]; Caco-2, 140 μM) of the same compound?
The value was 6.97%.

And the IC50 (Caco-2 cells [4]; Caco-2, CCK-8, read-out: IC50 (cytotoxicity))?
Its IC50 is less than 20 µM.

What about the “ratio of red/green fluorescence intensity” value (GES-1 cells [5]; GES-1, 20 μM) of the same compound?
The value was 5.68.

And the “ratio of red/green fluorescence intensity” value (GES-1 cells [5]; GES-1, 20 μM, listed as Acrolein)?
The value was 5.68 ± 0.24.

And the “ratio of red/green fluorescence intensity” value (GES-1 cells [5]; GES-1, 40 μM)?
The value was 4.29 ± 0.17.

What about the “ratio of red/green fluorescence intensity” value (GES-1 cells [5]; GES-1, 60 μM) of the same compound?
Its value is 2.13.

And the “ratio of red/green fluorescence intensity” value (GES-1 cells [5]; GES-1, 60 μM, listed as Acrolein)?
Its value is 2.13 ± 0.10.

What about the “ratio of red/green fluorescence intensity” value (Caco-2 cells [6]; Caco-2, 20 μM) of the same compound?
Its value is 5.32.

And the “ratio of red/green fluorescence intensity” value (Caco-2 cells [6]; Caco-2, 20 μM, listed as Acrolein)?
The value was 5.32 ± 0.17.

What about the “ratio of red/green fluorescence intensity” value (Caco-2 cells [6]; Caco-2, 40 μM) of the same compound?
The value was 2.88 ± 0.09.

What about the “ratio of red/green fluorescence intensity” value (Caco-2 cells [6]; Caco-2, 60 μM) of the same compound?
The value was 1.97.

What about the “ratio of red/green fluorescence intensity” value (Caco-2 cells [6]; Caco-2, 60 μM, listed as Acrolein) of the same compound?
The value was 1.97 ± 0.06.

Which “amount of ACR reduced compared with the initial content” value (“amount of ACR reduced” for short) ([7]; 40°C, rutin/ACR 1/1) does the source give for `C[C@@H]1O[C@@H](OC[C@H]2O[C@@H](Oc3c(-c4ccc(O)c(O)c4)oc4cc(O)cc(O)c4c3=O)[C@H](O)[C@@H](O)[C@@H]2O)[C@H](O)[C@H](O)[C@H]1O` [rutin, quercetin 3-O-rhamnosylglucoside] here?
Its value is 43.36%.

And the “content of ACR (residual)” value ([7]; 40°C)?
Its value is 113.28 µmol.

What about the “amount of ACR reduced” value ([7]; 60°C, rutin/ACR 1/1) of the same compound?
Its value is 82.05%.

What about the “content of ACR (residual)” value ([7]; 60°C) of the same compound?
The value was 35.9 µmol.

What about the “amount of ACR reduced” value ([7]; 80°C, rutin/ACR 1/1) of the same compound?
The value was 92.56%.

What about the “content of ACR (residual)” value ([7]; 80°C) of the same compound?
The value was 14.88 µmol.

What about the “amount of ACR reduced” value ([7]; 90°C, rutin/ACR 1/1) of the same compound?
The value was 96.09%.

And the “content of ACR (residual)” value ([7]; 90°C)?
Its value is 7.83 µmol.

And the “amount of ACR reduced” value ([7]; 100°C, rutin/ACR 1/1)?
The value was 98.20%.

And the “content of ACR (residual)” value ([7]; 100°C)?
Its value is 3.60 µmol.

And the ACR removed ([7]; after 8 h of reaction, 80°C, rutin/ACR 1/1)?
The ACR removed was “more than 94%”.

And the “content of residual ACR” value ([7]; molar ratio rutin/ACR 1/2, 80°C)?
Its value is 18.54 µmol.

And the “content of residual ACR” value ([7]; molar ratio rutin/ACR 4/1, 80°C)?
Its value is 6.69 µmol.
